Measurements taken from US6525001B1, “Substituted pyrimidine and pyridine herbicides” (Mid-American Commercialization Corporation, priority 1997, dated 2003).

How the values were obtained:
Format in all cases: in vivo
Parameters in all cases: key: 0 is no effect; 10 is complete control
wild oat (Avena fatua) = assay: Test B pre-/postemergence
In short: (§1)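 Compounds in a surfactant-containing, non-phytotoxic solvent blend are applied to freshly planted seed (preemergence) and, concurrently, to seedlings of 2 to 18 cm at 1–4 leaves (postemergence). Plants stay in the greenhouse twelve to sixteen days and are then scored visually from 0 (no effect) to 10 (complete control).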

[1] = test system: blackgrass (Alopecurus myosuroides); assay: Test B pre-/postemergence; details: for Blackgrass plant response rating: Preemergence
In short: as §1

[2] = test system: momingglory (Ipomoea hederacea); assay: Test B pre-/postemergence
In short: as §1

[3] = test system: velvetleaf (Abutilon theophrasti); assay: Test B pre-/postemergence
In short: as §1

[4] = test system: crabgrass (Digitaria sanguinalis); assay: Test B pre-/postemergence; details: for Crabgrass plant response rating: Preemergence
In short: as §1

[5] = test system: purple nutsedge (Cyperus rotundus); assay: Test B pre-/postemergence
In short: as §1

[6] = test system: bedstraw (Galium aparine); assay: Test B pre-/postemergence; details: for Bedstraw plant response rating: Preemergence
In short: as §1

[7] = test system: cocklebur (Xanthium strumarium); assay: Test B pre-/postemergence; details: for Cocklebur plant response rating: Preemergence
In short: as §1

corn (Zea mays) = assay: Test B pre-/postemergence; details: for Corn plant response rating: Preemergence
In short: as §1

[8] = test system: wheat (Triticum aestivum); assay: Test B pre-/postemergence
In short: as §1

rape (Brassica napus) = assay: Test B pre-/postemergence
In short: as §1

[9] = test system: sugar beet (Beta vulgaris); assay: Test B pre-/postemergence
In short: as §1

[10] = test system: giant foxtail (Setaria faberii); assay: Test B pre-/postemergence
In short: as §1

[11] = test system: pigweed (Amaranthus retroflexus); assay: Test B pre-/postemergence
In short: as §1

soybean (Glycine max) = assay: Test B pre-/postemergence
In short: as §1

[12] = test system: broadleaf signalgrass (Brachiaria decumbens); assay: Test B pre-/postemergence; details: for B. signalgrass plant response rating: Preemergence
In short: as §1

[13] = test system: smallflower flatsedge (Cyperus difformis); assay: Test B flood test
In short: (§2)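 Read-out is a visual response score from 0 (no effect) to 10 (complete control), assigned by comparison with untreated controls. Treatment was applied at the 2-leaf stage, and plants stayed in the greenhouse for twelve to sixteen days before scoring.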

[14] = test system: duck salad (Heteranthera limosa); assay: Test B flood test
In short: as §2

[15] = test system: bamyardgrass (Echinochloa crus-galli); assay: Test B flood test
In short: as §2

rice (Oryza sativa) = assay: Test B flood test
In short: as §2

[16] = Rate 250 g/ha, Postemergence (so in the source)
[17] = Rate 62 g/ha, Postemergence (flood test)
[18] = Rate 125 g/ha, Postemergence section (flood test species)
[19] = Rate 250 g/ha, Postemergence (flood test species)
[20] = Rate 125 g/ha, Postemergence, flood test

## Cc1cnc(-c2ccc(Cl)cc2F)nc1Cc1cccc(C#N)c1 [Compound 35]
Wild oat (Avena fatua); Rate 62 g/ha, Postemergence
  Wild oats plant response rating: 1
Wild oat (Avena fatua); Rate 62 g/ha, Preemergence
  Wild oats plant response rating: 0
Wild oat (Avena fatua); Rate 125 g/ha, Postemergence
  Wild oats plant response rating: 1
Wild oat (Avena fatua); Rate 125 g/ha, Preemergence
  Plant response rating, Wild oats: 0
Wild oat (Avena fatua); Rate 250 g/ha, Postemergence
  Plant response rating, Wild oats: 2
Wild oat (Avena fatua); [16]
  Plant response rating, Wild oats: 1
[1]; Rate 62 g/ha, Postemergence
  Plant response rating, Blackgrass: 1
[1]; Rate 62 g/ha
  Blackgrass plant response rating: 0
[1]; Rate 125 g/ha, Postemergence
  Plant response rating, Blackgrass: 1
[1]; Rate 125 g/ha
  Blackgrass plant response rating: 0
[1]; Rate 250 g/ha, Postemergence
  Plant response rating, Blackgrass: 1
[1]; [16]
  Plant response rating, Blackgrass: 0
[2]; Rate 62 g/ha, Postemergence
  Plant response rating, Morningglory: 1
[2]; Rate 62 g/ha, Preemergence
  Morningglory plant response rating: 0
[2]; Rate 125 g/ha, Postemergence
  Morningglory plant response rating: 1
[2]; Rate 125 g/ha, Preemergence
  Morningglory plant response rating: 0
[2]; Rate 250 g/ha, Postemergence
  Plant response rating, Morningglory: 1
[2]; [16]
  Plant response rating, Morningglory: 0
[3]; Rate 62 g/ha, Postemergence
  Plant response rating, Velvetleaf: 1
[3]; Rate 62 g/ha, Preemergence
  Velvetleaf plant response rating: 0
[3]; Rate 125 g/ha, Postemergence
  Velvetleaf plant response rating: 1
[3]; Rate 125 g/ha, Preemergence
  Plant response rating, Velvetleaf: 0
[3]; Rate 250 g/ha, Postemergence
  Plant response rating, Velvetleaf: 1
[3]; [16]
  Plant response rating, Velvetleaf: 1
[4]; Rate 62 g/ha, Postemergence
  Plant response rating, Crabgrass: 2
[4]; Rate 62 g/ha
  Crabgrass plant response rating: 0
[4]; Rate 125 g/ha, Postemergence
  Plant response rating, Crabgrass: 2
[4]; Rate 125 g/ha
  Crabgrass plant response rating: 1
[4]; Rate 250 g/ha, Postemergence
  Plant response rating, Crabgrass: 2
[4]; [16]
  Plant response rating, Crabgrass: 1
[5]; Rate 62 g/ha, Postemergence
  Plant response rating, Nutsedge: 0
[5]; Rate 62 g/ha, Preemergence
  Nutsedge plant response rating: 0
[5]; Rate 125 g/ha, Postemergence
  Nutsedge plant response rating: 0
[5]; Rate 125 g/ha, Preemergence
  Nutsedge plant response rating: 0
[5]; Rate 250 g/ha, Postemergence
  Plant response rating, Nutsedge: 0
[5]; [16]
  Plant response rating, Nutsedge: 0
[6]; Rate 62 g/ha, Postemergence
  Plant response rating, Bedstraw: 6
[6]; Rate 62 g/ha
  Bedstraw plant response rating: 0
[6]; Rate 125 g/ha, Postemergence
  Plant response rating, Bedstraw: 6
[6]; Rate 125 g/ha
  Bedstraw plant response rating: 0
[6]; Rate 250 g/ha, Postemergence
  Plant response rating, Bedstraw: 8
[6]; [16]
  Plant response rating, Bedstraw: 1
[7]; Rate 62 g/ha, Postemergence
  Plant response rating, Cocklebur: 2
[7]; Rate 62 g/ha
  Cocklebur plant response rating: 0
[7]; Rate 125 g/ha, Postemergence
  Plant response rating, Cocklebur: 2
[7]; Rate 125 g/ha
  Cocklebur plant response rating: 0
[7]; Rate 250 g/ha, Postemergence
  Plant response rating, Cocklebur: 2
[7]; [16]
  Plant response rating, Cocklebur: 0
Corn (Zea mays); Rate 62 g/ha, Postemergence
  Plant response rating, Corn: 1
Corn (Zea mays); Rate 62 g/ha
  Corn plant response rating: 0
Corn (Zea mays); Rate 125 g/ha, Postemergence
  Plant response rating, Corn: 1
Corn (Zea mays); Rate 125 g/ha
  Corn plant response rating: 0
Corn (Zea mays); Rate 250 g/ha, Postemergence
  Plant response rating, Corn: 1
Corn (Zea mays); [16]
  Plant response rating, Corn: 0
[8]; Rate 62 g/ha, Postemergence
  Wheat plant response rating: 0
[8]; Rate 62 g/ha, Preemergence
  Wheat plant response rating: 0
[8]; Rate 125 g/ha, Postemergence
  Wheat plant response rating: 0
[8]; Rate 125 g/ha, Preemergence
  Plant response rating, Wheat: 0
[8]; Rate 250 g/ha, Postemergence
  Plant response rating, Wheat: 1
[8]; [16]
  Plant response rating, Wheat: 0
Rape (Brassica napus); Rate 62 g/ha, Postemergence
  Plant response rating, Rape: 6
Rape (Brassica napus); Rate 62 g/ha, Preemergence
  Rape plant response rating: 0
Rape (Brassica napus); Rate 125 g/ha, Postemergence
  Rape plant response rating: 6
Rape (Brassica napus); Rate 125 g/ha, Preemergence
  Rape plant response rating: 0
Rape (Brassica napus); Rate 250 g/ha, Postemergence
  Plant response rating, Rape: 9
Rape (Brassica napus); [16]
  Plant response rating, Rape: 0
[9]; Rate 62 g/ha, Postemergence
  Plant response rating, Sugarbeets: 9
[9]; Rate 62 g/ha, Preemergence
  Sugarbeets plant response rating: 0
[9]; Rate 125 g/ha, Postemergence
  Sugarbeets plant response rating: 10
[9]; Rate 125 g/ha, Preemergence
  Plant response rating, Sugarbeets: 0
[9]; Rate 250 g/ha, Postemergence
  Plant response rating, Sugarbeets: 10
[9]; [16]
  Plant response rating, Sugarbeets: 1
[10]; Rate 62 g/ha, Postemergence
  Plant response rating, Giant foxtail: 1
[10]; Rate 62 g/ha, Preemergence
  Giant foxtail plant response rating: 0
[10]; Rate 125 g/ha, Postemergence
  Giant foxtail plant response rating: 1
[10]; Rate 125 g/ha, Preemergence
  Giant foxtail plant response rating: 0
[10]; Rate 250 g/ha, Postemergence
  Plant response rating, Giant foxtail: 1
[10]; [16]
  Plant response rating, Giant foxtail: 1
[11]; Rate 62 g/ha, Postemergence
  Plant response rating, Redroot pigweed: 3
[11]; Rate 62 g/ha, Preemergence
  Redroot pigweed plant response rating: 0
[11]; Rate 125 g/ha, Postemergence
  Redroot pigweed plant response rating: 3
[11]; Rate 125 g/ha, Preemergence
  Redroot pigweed plant response rating: 0
[11]; Rate 250 g/ha, Postemergence
  Plant response rating, Redroot pigweed: 5
[11]; [16]
  Plant response rating, Redroot pigweed: 5
Soybean (Glycine max); Rate 62 g/ha, Postemergence
  Plant response rating, Soybean: 1
Soybean (Glycine max); Rate 62 g/ha, Preemergence
  Soybean plant response rating: 0
Soybean (Glycine max); Rate 125 g/ha, Postemergence
  Soybean plant response rating: 2
Soybean (Glycine max); Rate 125 g/ha, Preemergence
  Plant response rating, Soybean: 0
Soybean (Glycine max); Rate 250 g/ha, Postemergence
  Plant response rating, Soybean: 2
Soybean (Glycine max); [16]
  Plant response rating, Soybean: 0
[12]; Rate 62 g/ha, Postemergence
  Plant response rating, B. signalgrass: 1
[12]; Rate 62 g/ha
  B. signalgrass plant response rating: 0
[12]; Rate 125 g/ha, Postemergence
  Plant response rating, B. signalgrass: 1
[12]; Rate 125 g/ha
  B. signalgrass plant response rating: 0
[12]; Rate 250 g/ha, Postemergence
  Plant response rating, B. signalgrass: 1
[12]; Rate 250 g/ha, Postemergence as printed in head r139 (second section for compounds 26-50)
  Plant response rating, B. signalgrass: 0
[13]; [17]
  Plant response rating, S. Flatsedge: 1
[13]; [18]
  S. Flatsedge plant response rating: 2
[13]; [19]
  Plant response rating, S. Flatsedge: 2
[14]; [17]
  Plant response rating, Ducksalad: 0
[14]; [20]
  Plant response rating, Ducksalad: 0
[14]; [19]
  Plant response rating, Ducksalad: 1
[15]; [17]
  Plant response rating, Barnyardgrass: 0
[15]; [20]
  Plant response rating, Barnyardgrass: 2
[15]; [19]
  Plant response rating, Barnyardgrass: 2
Rice (Oryza sativa); [17]
  Plant response rating, Rice: 0
Rice (Oryza sativa); [18]
  Rice plant response rating: 1
Rice (Oryza sativa); [19]
  Plant response rating, Rice: 1
